Results reported in ChEMBL document CHEMBL1201862, “PubChem BioAssay data set” (2004).
Calls of active or inactive are those of the source.

Assays:
Nonstructural protein 1 = Nonstructural protein 1 (Influenza A virus, UniProt Q194T2); format: functional, Influenza A virus (A/California/07/2009(H1N1))
Protein skinhead-1 = biological target: T1, Protein skinhead-1 (Caenorhabditis elegans, UniProt P34707); format: functional
T1 sequence (P34707 whole entry): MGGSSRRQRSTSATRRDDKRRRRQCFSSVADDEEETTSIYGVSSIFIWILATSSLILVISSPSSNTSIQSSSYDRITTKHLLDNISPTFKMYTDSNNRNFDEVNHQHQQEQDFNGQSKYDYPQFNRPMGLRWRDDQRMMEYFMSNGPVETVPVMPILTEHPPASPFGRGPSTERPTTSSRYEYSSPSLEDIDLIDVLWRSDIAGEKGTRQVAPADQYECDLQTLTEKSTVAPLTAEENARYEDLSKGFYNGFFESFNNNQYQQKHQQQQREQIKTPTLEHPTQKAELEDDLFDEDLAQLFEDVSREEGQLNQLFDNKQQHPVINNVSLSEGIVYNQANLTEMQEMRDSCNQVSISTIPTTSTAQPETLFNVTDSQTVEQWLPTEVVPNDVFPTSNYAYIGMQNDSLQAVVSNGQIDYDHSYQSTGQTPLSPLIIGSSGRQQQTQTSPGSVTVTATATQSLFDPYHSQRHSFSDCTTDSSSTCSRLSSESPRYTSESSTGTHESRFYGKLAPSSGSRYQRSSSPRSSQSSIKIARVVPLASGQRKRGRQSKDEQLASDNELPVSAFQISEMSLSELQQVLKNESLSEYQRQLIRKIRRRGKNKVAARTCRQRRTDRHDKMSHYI

[1] = Luminescence Cell-Based Dose Retest to Confirm Inhibitors of Cancer Stem Cells. [Related pubchem assays (depositor defined):AID2717, AID2721]; format: functional, Homo sapiens; conditions: Homo sapiens
[2] = biological target: T2, Calpain-2 catalytic subunit (Sus scrofa, UniProt P43367); test: m-calpain protease blockers, concentration series – biochemical, fluorogenic peptide substrate, dose response (AID 1420); format: functional
T2 sequence (P43367 whole entry): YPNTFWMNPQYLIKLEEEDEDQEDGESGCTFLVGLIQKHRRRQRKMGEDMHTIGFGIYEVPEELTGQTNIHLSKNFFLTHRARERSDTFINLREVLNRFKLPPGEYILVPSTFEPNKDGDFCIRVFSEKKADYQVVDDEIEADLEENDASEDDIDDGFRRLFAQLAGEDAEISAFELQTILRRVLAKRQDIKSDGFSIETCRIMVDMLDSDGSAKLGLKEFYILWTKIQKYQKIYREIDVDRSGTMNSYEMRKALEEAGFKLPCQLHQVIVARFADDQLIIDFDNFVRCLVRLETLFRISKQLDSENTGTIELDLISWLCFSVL

[3] = biological target: Voltage-gated inwardly rectifying potassium channel KCNH2 (Homo sapiens, UniProt Q12809); test: concentration-dependent hERG rescue from blockers – cell-based, thallium flux, dose response (AID 2121); format: ADME
Chain of Voltage-gated inwardly rectifying potassium channel KCNH2 (Q12809 whole entry): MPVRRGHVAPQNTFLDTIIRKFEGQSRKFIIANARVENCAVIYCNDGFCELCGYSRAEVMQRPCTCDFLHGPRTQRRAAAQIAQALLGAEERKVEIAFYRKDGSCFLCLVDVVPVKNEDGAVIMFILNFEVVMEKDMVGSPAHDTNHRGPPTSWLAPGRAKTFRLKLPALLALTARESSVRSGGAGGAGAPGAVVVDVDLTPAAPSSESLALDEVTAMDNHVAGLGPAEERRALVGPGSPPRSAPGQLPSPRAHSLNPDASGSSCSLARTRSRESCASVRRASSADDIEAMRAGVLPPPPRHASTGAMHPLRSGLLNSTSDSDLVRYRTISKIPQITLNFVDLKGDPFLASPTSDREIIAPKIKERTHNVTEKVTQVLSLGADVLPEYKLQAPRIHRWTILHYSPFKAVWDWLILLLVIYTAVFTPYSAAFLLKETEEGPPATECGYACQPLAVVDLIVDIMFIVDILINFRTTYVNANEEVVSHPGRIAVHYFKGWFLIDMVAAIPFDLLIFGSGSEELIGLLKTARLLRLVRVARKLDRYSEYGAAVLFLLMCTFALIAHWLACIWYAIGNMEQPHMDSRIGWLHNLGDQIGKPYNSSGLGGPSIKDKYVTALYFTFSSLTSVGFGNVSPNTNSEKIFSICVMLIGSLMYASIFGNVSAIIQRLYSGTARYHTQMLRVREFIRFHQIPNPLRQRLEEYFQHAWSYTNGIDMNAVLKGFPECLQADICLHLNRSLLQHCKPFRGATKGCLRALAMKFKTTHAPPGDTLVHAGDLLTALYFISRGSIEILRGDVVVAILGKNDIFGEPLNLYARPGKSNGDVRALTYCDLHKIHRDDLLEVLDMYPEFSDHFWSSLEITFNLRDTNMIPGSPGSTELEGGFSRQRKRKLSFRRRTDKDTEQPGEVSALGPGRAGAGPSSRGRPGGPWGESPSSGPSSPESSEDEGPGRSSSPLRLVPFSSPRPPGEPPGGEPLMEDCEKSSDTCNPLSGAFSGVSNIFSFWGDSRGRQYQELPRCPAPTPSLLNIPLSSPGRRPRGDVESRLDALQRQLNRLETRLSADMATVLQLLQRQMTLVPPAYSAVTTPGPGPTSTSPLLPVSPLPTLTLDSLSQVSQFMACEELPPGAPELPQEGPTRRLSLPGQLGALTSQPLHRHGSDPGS

[4] = M. tuberculosis H37Rv growth inhibitors, H37Rv strain (AID 1626); format: functional
[5] = general mammalian cell viability loss – inhibitor set, cherry-pick, set 2, cytotoxicity control for miR-122 modulator project, dose response (AID 720697); format: functional, cell-based
[6] = fluconazole-exposed Candida albicans growth modulators – fluorescence, retest, confirmation (AID 2467); format: functional, cell-based
[7] = NIH-3T3 fibroblast cytotoxicity, dose response, cytotoxicity control, cell-based, fluorescence, Alamar Blue, secondary assay (AID 2327); format: functional;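 note: NIH-3T3 mouse fibroblasts cultured with fluconazole at 8 µg/mL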
[8] = biological target: ATP-dependent molecular chaperone HSP82 (Candida albicans (strain WO-1) (Yeast), UniProt C4YTQ8); test: steroid-induced GRE reporter decrease in yeast – S. cerevisiae, luminescence, Hsp90 inhibitor project, dose response (AID 2400); format: functional, cell-based;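 note: beta-galactosidase luminescence from glucocorticoid response element reporter as proxy for Hsp90 function; inhibitor potency where signal loss means Hsp90 inhibition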
Chain of ATP-dependent molecular chaperone HSP82 (C4YTQ8 whole entry): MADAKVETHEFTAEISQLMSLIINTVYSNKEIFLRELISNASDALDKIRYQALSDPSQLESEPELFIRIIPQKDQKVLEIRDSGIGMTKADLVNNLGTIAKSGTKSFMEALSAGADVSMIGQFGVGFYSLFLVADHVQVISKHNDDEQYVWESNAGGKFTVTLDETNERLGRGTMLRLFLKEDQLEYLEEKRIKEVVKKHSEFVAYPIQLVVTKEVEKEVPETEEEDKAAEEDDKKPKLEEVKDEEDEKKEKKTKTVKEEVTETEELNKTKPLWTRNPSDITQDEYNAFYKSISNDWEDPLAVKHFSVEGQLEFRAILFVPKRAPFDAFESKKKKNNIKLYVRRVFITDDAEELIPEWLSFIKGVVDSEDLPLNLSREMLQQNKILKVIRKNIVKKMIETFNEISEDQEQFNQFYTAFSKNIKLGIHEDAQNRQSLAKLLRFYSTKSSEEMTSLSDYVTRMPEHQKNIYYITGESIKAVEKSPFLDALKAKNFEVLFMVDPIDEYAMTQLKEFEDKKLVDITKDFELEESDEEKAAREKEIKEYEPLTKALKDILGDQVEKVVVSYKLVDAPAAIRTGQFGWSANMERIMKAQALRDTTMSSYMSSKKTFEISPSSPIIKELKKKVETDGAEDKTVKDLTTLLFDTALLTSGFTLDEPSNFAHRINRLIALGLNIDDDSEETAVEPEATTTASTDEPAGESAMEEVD

[9] = biological target: T3, Serine/threonine-protein phosphatase (Candida dubliniensis (strain CD36 / CBS 7987 / NCPF 3949 / NRRLY-17841) (Yeast), UniProt B9W6M3); test: blockers of CaCl2-induced CDRE-lacZ signaling – S. cerevisiae, luminescence, secondary, dose response (AID 2388); format: functional, cell-based;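 note: yeast reporter cells carrying a calcineurin-responsive lacZ construct stimulated with calcium chloride; luminescent beta-galactosidase reporter signal in whole cells rather than isolated phosphatase activity; potency for inhibition where a drop in reporter signal means calcineurin blockade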
T3 sequence (B9W6M3 whole entry): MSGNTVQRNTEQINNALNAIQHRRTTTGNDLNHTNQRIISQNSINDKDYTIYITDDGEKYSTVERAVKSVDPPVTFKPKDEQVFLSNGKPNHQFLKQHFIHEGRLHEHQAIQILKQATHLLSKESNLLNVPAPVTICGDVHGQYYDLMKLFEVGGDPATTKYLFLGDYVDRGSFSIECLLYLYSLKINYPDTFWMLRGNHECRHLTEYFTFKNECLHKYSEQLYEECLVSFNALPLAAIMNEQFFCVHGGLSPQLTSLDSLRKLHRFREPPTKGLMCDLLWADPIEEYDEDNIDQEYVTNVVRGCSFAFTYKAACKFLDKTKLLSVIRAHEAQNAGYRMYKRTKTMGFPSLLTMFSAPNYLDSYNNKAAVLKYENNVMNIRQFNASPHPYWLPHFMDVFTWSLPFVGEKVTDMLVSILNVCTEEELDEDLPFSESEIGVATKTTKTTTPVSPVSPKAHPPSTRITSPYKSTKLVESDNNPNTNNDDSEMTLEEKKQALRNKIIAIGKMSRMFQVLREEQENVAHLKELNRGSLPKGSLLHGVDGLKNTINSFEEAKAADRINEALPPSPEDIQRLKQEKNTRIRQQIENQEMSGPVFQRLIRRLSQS

[10] = viability loss of HPDE-C7K cells – cell-based, fluorescence, HTS, primary screen (AID 431); format: functional; conditions: Homo sapiens
[11] = NIH3T3 cell viability loss – ATP luminescence, mouse fibroblasts, counter-screen, dose response (AID 2010); format: functional, cell-based;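 note: cells exposed to compound for about 90 hours before reading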
[12] = HPDE-C7 pancreatic duct cell viability loss – fluorescence, HTS (AID 430); format: functional, cell-based; conditions: Homo sapiens
[13] = general mammalian cell viability loss – activator set, cherry-pick, cytotoxicity control for miR-122 modulator project, dose response (AID 720690); format: functional, cell-based;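 note: HEK293T human cells scored for general mammalian cytotoxicity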
INS1 = test: INS-1E survival protection against cytokine death – cell-based, luminescence, retest, dose response (AID 449756); format: functional; conditions: Rattus norvegicus;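 note: cell death triggered by IL-1 beta plus TNF-alpha plus IFN-gamma mixture; protective hits raise ATP signal compared with cytokine alone wells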
[14] = Trypanosoma cruzi growth suppression in host cells – NIH3T3 host cells, beta-gal luminescence, confirmation (AID 2044); format: functional, cell-based;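 note: intracellular parasites grown in NIH/3T3 mouse fibroblasts as host cells; luminescent beta-galactosidase reporter signal from transgenic T. cruzi replicating inside host cells; inhibitors lower the luminescence signal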
[15] = biological target: T4, Rac GTPase-activating protein 1 (Homo sapiens, UniProt Q9H0H5); test: blockers of MgcRacGAP-driven Rac1 GTP hydrolysis – biochemical, ADP Hunter fluorescence, primary and confirmatory, confirmation (AID 624330); format: functional
T4 sequence (Q9H0H5 whole entry): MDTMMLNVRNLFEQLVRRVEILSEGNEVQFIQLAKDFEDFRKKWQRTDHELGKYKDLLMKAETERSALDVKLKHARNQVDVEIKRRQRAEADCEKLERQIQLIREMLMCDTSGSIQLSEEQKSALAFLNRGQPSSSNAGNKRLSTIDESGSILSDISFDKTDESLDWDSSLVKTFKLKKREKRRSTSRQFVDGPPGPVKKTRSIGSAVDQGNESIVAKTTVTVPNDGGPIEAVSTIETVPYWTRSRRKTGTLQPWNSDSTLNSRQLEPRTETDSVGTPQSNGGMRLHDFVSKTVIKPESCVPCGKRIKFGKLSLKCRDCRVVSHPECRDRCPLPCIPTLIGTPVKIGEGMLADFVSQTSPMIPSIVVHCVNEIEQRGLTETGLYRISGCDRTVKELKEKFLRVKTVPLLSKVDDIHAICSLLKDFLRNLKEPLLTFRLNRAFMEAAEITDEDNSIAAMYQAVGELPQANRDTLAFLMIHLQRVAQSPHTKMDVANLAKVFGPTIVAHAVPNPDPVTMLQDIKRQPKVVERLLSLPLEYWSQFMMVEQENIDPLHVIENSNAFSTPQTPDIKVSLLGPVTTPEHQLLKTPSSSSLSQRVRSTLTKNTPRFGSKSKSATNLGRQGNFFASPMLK

[16] = biological target: Protein-tyrosine kinase 2-beta (Homo sapiens, UniProt Q14289);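 note: potency of inhibitors of PYK2 kinase phosphorylation of poly-GT substrate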
Chain of Protein-tyrosine kinase 2-beta (Q14289 whole entry): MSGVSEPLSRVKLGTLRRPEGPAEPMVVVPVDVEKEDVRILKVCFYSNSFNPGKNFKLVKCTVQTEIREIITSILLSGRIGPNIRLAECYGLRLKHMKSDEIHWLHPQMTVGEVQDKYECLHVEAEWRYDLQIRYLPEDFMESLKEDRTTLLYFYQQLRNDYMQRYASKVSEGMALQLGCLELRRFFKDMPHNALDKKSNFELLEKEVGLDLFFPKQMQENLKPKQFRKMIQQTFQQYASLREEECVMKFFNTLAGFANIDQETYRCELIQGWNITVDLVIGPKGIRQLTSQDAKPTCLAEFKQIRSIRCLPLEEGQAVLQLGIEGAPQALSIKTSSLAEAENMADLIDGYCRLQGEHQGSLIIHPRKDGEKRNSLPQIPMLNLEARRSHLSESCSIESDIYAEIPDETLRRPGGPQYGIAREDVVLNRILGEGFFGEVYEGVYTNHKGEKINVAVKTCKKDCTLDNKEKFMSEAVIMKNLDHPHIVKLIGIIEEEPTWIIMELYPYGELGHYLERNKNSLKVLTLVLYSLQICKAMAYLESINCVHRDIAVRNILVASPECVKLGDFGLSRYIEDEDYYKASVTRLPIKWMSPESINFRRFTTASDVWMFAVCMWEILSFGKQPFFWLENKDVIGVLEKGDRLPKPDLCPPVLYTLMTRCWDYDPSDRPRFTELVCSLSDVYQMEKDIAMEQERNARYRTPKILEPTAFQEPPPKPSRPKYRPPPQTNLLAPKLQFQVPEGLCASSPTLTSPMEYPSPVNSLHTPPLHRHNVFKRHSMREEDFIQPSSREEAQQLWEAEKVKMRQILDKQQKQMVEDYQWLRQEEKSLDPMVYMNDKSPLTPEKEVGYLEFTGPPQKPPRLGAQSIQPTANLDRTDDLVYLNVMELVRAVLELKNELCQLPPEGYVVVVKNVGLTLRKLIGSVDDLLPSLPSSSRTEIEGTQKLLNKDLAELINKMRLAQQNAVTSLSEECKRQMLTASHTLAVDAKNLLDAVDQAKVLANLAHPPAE

Estrogen receptor beta = Estrogen receptor beta (Homo sapiens, UniProt Q92731); test: blockers of SRC-3 recruitment to ERβ – biochemical, ELISA, streptavidin-HRP readout, orthogonal assay, confirmation (AID 1060)
Chain of Estrogen receptor beta (Q92731 whole entry): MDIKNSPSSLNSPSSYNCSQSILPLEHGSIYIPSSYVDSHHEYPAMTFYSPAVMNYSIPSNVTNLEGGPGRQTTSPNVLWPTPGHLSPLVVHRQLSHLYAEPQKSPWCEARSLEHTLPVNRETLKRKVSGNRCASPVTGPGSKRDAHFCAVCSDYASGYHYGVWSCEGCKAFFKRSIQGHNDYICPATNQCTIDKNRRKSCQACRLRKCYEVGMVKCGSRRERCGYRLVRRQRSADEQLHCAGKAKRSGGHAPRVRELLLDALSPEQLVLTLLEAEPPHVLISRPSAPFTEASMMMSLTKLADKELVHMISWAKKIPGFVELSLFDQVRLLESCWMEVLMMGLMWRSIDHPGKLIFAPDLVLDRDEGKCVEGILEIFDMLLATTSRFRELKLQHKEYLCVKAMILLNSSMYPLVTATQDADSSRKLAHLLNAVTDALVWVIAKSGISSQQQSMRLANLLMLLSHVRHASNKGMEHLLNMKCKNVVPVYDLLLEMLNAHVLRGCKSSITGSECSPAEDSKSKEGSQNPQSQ

[17] = biological target: T5, Microphthalmia-associated transcription factor (Homo sapiens, UniProt O75030); test: reducers of TRPM1 reporter luminescence, concentration series – cell-based, SK-MEL-5, cherry-picked, set 3, MITF inhibitor project, dose response (AID 493073); format: functional;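 note: SK-MEL-5 melanoma cells with luciferase driven by the MITF target TRPM1 promoter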
T5 sequence (O75030 whole entry): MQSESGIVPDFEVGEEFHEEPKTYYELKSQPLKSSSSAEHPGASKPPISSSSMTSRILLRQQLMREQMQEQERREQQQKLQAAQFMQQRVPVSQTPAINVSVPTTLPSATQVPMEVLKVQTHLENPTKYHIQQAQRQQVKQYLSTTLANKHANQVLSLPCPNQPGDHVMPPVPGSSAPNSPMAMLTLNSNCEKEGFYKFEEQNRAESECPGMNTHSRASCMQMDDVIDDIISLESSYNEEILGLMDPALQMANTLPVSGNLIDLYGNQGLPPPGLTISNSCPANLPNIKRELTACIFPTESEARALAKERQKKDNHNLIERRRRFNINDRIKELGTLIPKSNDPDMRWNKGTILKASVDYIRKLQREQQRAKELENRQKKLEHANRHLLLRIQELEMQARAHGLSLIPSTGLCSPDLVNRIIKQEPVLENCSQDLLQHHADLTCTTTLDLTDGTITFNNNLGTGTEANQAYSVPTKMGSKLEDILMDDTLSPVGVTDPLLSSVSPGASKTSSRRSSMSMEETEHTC

[18] = biological target: T6, Short transient receptor potential channel 4 (Mus musculus, UniProt Q9QUQ5); test: block of DAMGO-driven TRPC4 calcium entry – cell-based, HEK293 TRPC4/mu-opioid, Fluo-4 calcium, dose response (AID 434942); format: functional;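 note: potency of inhibitors blocking the TRPC4 calcium response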
T6 sequence (Q9QUQ5 whole entry): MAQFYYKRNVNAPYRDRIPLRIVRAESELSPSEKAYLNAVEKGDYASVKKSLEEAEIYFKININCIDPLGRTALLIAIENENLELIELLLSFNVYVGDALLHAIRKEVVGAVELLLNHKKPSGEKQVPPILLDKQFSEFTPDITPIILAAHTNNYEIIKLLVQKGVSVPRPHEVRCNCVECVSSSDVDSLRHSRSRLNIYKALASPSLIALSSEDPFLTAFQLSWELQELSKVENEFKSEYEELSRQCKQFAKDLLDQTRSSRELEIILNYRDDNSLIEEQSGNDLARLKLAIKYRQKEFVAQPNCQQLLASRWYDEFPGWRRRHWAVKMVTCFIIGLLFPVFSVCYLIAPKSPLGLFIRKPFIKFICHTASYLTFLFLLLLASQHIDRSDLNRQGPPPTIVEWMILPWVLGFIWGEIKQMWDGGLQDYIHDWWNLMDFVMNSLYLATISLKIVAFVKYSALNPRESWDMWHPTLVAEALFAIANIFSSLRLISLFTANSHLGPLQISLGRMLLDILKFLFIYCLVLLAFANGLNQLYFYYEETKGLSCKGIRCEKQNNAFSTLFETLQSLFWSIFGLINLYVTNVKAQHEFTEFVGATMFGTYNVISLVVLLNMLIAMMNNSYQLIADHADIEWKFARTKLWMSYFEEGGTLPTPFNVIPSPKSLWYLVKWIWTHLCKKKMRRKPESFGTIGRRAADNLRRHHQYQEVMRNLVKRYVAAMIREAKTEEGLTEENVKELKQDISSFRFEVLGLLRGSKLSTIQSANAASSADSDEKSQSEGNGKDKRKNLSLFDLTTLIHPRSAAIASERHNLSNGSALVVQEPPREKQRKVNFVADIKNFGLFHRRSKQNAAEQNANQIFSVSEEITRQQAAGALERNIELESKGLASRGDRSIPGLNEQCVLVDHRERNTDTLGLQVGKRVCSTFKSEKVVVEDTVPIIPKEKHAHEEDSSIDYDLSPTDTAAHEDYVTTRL

Chain of Nonstructural protein 1 (Q194T2 whole entry): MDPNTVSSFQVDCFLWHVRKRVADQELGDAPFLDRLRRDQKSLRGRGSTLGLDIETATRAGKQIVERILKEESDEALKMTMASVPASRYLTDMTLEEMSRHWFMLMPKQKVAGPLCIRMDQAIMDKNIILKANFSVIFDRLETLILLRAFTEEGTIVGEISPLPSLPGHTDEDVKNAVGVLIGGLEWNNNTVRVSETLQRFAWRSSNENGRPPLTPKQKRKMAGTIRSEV

## Cc1ccc(C(C#N)c2ccc3c(C(F)(F)F)cc(C(F)(F)F)nc3n2)cc1 (centres undefined)
Nonstructural protein 1
  IC50: 24.4 µM (active)
Protein skinhead-1
  IC50: > 100 µM (inactive)
[1]
  AC50: 1.78 µM (active)
[2]
  IC50: > 50 µM (not active)
[3]
  EC50: 6 µM (active)

## CCOC(=O)CNC(=O)CSc1ncnc2c1nnn2-c1ccc(F)cc1
[4]
  IC50: > 100 µM (active)

## O=C(Oc1c(CN2CCOCC2)cc(Cl)c2cccnc12)c1ccc(F)cc1
[5]
  AC50: 5.7 µM (active)
[6]
  EC50: 1.54 µM (active)
[7]
  EC50: > 160 µM (inconclusive)
[8]
  EC50: > 160 µM (inactive)
[9]
  EC50: > 180 µM (inactive)
[10]
  EC50: 12.7 µM (active)
[11]
  EC50: > 60 µM (not active)
[12]
  EC50: 4.28 µM (active)
[13]
  AC50: 9.1 µM (active)
INS1
  AC50: 3.99 µM (active)
[14]
  EC50: 4.69 µM (active)

## N#C/C(=C/c1ccc(-c2ccc(Br)cc2)o1)C(=O)NC1CCCCC1
[4]
  IC50: > 100 µM (active)

## Cc1ccccc1-c1ccc(Nc2ccc(N3CCOCC3)cc2)nn1
[15]
  IC50: 79.6 µM (active)
[11]
  EC50: > 60 µM (not active)
[16]
  IC50: 14.5 µM (not active)
Estrogen receptor beta
  IC50: < 23 nM (not active)
[14]
  EC50: 1.42 µM (active)

## CN(C)CCN(C(=O)c1cc(Cl)sc1Cl)c1nc2ccc(F)cc2s1
[11]
  EC50: > 60 µM (not active)
cells
  EC50: 211 nM (active)
[14]
  EC50: < 0.1 µM (active)

## Cc1nn2c(c1-c1ccccc1)N=C1CCCC(O)=C1C2c1ccccc1 (centres undefined)
[16]
  IC50: > 69.5 µM (not active)

## CCOC(=O)C1CCN(Cc2c[nH]nc2-c2ccc(C)cc2)CC1
[10]
  EC50: > 20 µM (not active)
[12]
  EC50: > 20 µM (not active)

## Cc1ccc(-c2c[n+](Cc3cccc(Cl)c3)c3n2CCC3)cc1
[17]
  AC50: 12.2 µM (active)
[18]
  EC50: 1.33 µM (active)
[11]
  EC50: > 30 µM (not active)
cells
  EC50: 25 nM (active)
[14]
  EC50: < 0.1 µM (active)
